Consider 8 compounds from patent US11247966B2, “4-(p-trifluoromethylbenzyl)-3-fluoro-1,2,4-triphenylamine derivative and pharmaceutical composition and applications thereof” (HEBEI MEDICAL UNIVERSITY, priority 2018, dated 2022).

Like-named read-outs stand apart in the source and are kept apart here.

For one data set, the target named is KCNQ2/3 channels (Homo sapiens, UniProt O43525+O43526). Briefly: High-throughput determination of Rb+ efflux by atomic absorption spectrometry. It is filed as cell-based. An excerpt:
The determination technique of Rb^+ efflux by AAS is safer and faster in high-throughput screening of potassium channel regulators, and has the characteristics of directly reflecting the activity of ion channels and the regulatory role of regulators. Rb has a similar atomic size to K, and the potassium channel is permeable to Rb^+, the opening or closing of the potassium channel can be determined by measuring the concentration of Rb^+ efflux. Rb has a specific atomic absorption at 780 nm and the Rb^+ concentration can be measured by AAS. Therefore, AAS can be used to screen potassium channel openers or shutters by the high-throughput determination technique for measuring Rb^+ efflux.
Chinese hamster ovary (CHO) cells with stable KCNQ2/3 channels in logarithmic growth phase are inoculated on a 96-well plate at a density of 2×10^4 cells/well. Three wells are provided for each concentration. Solvent control wells having the corresponding concentrations are arranged. After adherent growth overnight, the culture medium is discarded, and 200 μl of a loading buffer containing RbCL is added, and culturing is performed at 37° C. and under 5% CO2 for 3 h. The loading buffer is then discarded and washing is performed 3 times with a wash buffer. To screen the channel opener, the compound to be tested is diluted in a depolarizing buffer and 200 μl of the above solution is added into the cells and reacted for 10 min. After incubation for 10 min, 200 μl of a supernatant is carefully transferred into another 96-well plate. Rb^+ atomic absorption at 780 nm is determined by an ICR8000 atomic absorption spectrometer. The relative efflux is calculated according to the formula Fsupern=(Rb_supern/cpd/Rb_supern/d)*100.

The target of a further data set is KCNQ2/3 (Kv7.2/7.3) (Homo sapiens, UniProt O43525+O43526). Briefly: Electrophysiological patch clamp determination, KCNQ2/3. It is filed as cell-based. Conditions: whole-cell patch clamp, CHO cells; read-out: EC50 value, activation of KCNQ2/3 (Kv7.2/7.3). How it is done:
(§1) CHO cells culture: CHO cells with stable KCNQ channels are cultured in a DMEM culture solution containing 10% fetal bovine serum, 100 U/ml penicillin and streptomycin, and then digested and passaged by pancreatin. The cells are placed on a 12 mm round cover glass and cultured in a 24-well plate.
(§2) Cell membrane current record by patch clamp technique: HEKA-EPC10 is used as a patch clamp amplifier. Amphotericin B (final concentration of 0.1-0.2 mg/ml) is used in the electrode to record the perforation patch clamp. After polishing, the microelectrode is filled with an electrode inner fluid, and the resistance value is controlled to be 2-4 MΩ. The electrode inner fluid used for recording CHO cells is (mM): KCl 160, HEPES 5, MgCl2 3, CaCl2 1 and EGTA 3, and the pH is adjusted to 7.4 with KOH. The components of the extracellular fluid are (mM): NaCl 160, KCl 2.5, HEPES 10, glucose 8, MgCl2 1 and CaCl2 5. After forming a giant resistance seal between the microelectrode and the cell membrane, the current is recorded under voltage clamping.

A further data set addresses KCNQ4 (Kv7.4) (Homo sapiens, UniProt P56696). Briefly: Electrophysiological patch clamp determination, KCNQ4. Format: cell-based. The settings on record: CHO cells. As for the experimental part:
as §1, §2

The next data set concerns Kunming mice. Briefly: Maximum electroshock seizure (MES) experimental model. Format: in vivo. As for the experimental part: Methods: Kunming mice, male, 18-22 g, are placed in the experimental environment 3 days before the experiment to make them adapt to the environment, eat and drink freely; the room temperature is 23-25° C.
The experimental instrument is YLS-9A physiological and pharmacological electronic stimulator: continuous wave output; wave width of 20 ms; gap of 10 ms; wave number of 70; voltage of 60 V; current limit of 3.5 mA.
Methods: 24 hours before the formal experiment, the mice are screened, the stimulator is set according to the above parameters, the mouse ears are clamped with crocodile clip of the stimulator, and the stimulation is started. The ankylosis of the hind limbs of the mice is taken as a positive index to screen the qualified (positive) mice and eliminate the substandard mice. In the formal experiment, the grouping is randomly performed with 10 mice in each group according to the experimental scheme, and the electrical stimulation is carried out. If no ankylosis is found in the hind limbs, it is effective (positive).

For another data set, the system named is KM mice. Briefly: Pentylenetetrazole (PTZ)-induced epilepsy model. It is filed as in vivo. Conditions: PTZ 85 mg/kg s.c. How it is done:
Experimental conditions: room temperature 25±1° C.
Experimental animals: KM mice, half male and half female, weighing 18-25 g, 10-12 mice in each group, adapt to the environment for 3 days and eat and drink freely.
Methods: the day before the experiment, each animal is labeled to ensure that the determination time of each animal after administration is consistent. The experimental animals fast for more than 8 h the night before the experiment. […] After the drugs are absorbed, the model is made by the subcutaneous administration of 85 mg/kg PTZ (administration volume of 0.1 ml/10 g) body weight to the neck and back. After PTZ administration, time is counted and the model is put into the transparent observation box in time to keep the environment quiet. The seizure threshold and the number of non-seizure animals are recorded. […] The seizure threshold and the rate of non-death mice (i.e. protective rate) within 12 h after constructing the mold are compared.

The mark [1] stands for this setting: Rb+ efflux by AAS, CHO cells with stable KCNQ2/3 channels, read-out: KCNQ2/3 EC50.
Where [2] appears, read: intraperitoneal 1 mg/kg body weight.

Sequence of KCNQ2/3 channels (O43525 whole entry): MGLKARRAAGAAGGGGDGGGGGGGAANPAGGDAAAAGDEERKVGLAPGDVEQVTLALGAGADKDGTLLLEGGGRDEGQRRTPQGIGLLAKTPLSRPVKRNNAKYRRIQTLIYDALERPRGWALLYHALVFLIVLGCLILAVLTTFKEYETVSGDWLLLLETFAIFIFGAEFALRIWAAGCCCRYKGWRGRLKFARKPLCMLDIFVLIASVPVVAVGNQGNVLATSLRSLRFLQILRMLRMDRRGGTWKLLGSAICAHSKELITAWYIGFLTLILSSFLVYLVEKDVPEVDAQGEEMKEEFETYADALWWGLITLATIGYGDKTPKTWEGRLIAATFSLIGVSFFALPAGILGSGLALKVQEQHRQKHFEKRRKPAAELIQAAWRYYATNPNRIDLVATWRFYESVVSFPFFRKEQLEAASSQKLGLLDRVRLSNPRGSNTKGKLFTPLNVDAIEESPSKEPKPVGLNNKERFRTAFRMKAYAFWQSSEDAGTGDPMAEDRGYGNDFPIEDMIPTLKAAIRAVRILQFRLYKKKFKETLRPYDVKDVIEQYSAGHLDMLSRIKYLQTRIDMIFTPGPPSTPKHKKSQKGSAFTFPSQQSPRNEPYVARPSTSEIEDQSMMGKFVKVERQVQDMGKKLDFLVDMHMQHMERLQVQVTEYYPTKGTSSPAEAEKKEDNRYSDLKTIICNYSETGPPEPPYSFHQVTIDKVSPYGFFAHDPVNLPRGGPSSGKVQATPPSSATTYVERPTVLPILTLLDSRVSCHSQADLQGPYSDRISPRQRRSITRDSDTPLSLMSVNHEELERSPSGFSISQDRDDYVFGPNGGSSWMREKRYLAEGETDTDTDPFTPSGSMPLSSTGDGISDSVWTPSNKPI
Sequence of KCNQ2/3 channels (O43526 whole entry): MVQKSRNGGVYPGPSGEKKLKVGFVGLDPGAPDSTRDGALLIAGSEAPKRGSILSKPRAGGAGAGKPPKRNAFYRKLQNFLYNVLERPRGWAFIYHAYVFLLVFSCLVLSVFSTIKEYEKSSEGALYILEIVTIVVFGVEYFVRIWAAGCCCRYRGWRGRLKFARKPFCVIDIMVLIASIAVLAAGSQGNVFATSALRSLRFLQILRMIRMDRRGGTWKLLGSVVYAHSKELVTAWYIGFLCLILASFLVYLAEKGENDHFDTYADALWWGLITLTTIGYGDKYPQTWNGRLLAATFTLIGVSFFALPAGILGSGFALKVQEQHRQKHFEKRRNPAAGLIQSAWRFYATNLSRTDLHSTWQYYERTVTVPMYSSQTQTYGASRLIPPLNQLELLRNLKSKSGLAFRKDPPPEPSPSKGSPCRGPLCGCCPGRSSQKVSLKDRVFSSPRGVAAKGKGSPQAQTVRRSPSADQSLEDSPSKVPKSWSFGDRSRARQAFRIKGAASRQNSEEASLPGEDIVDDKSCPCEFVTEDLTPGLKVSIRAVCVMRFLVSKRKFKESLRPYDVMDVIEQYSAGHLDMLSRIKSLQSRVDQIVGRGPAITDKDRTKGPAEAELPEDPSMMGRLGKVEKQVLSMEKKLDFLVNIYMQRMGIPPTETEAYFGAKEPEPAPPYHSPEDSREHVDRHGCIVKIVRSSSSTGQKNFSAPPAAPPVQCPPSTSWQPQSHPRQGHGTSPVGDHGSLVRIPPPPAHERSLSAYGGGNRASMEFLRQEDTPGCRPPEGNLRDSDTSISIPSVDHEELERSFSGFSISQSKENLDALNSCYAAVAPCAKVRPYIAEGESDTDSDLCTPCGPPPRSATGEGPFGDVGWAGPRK

On to `Nc1c(NC(=O)CCC2CCCC2)ccc(NCc2ccc(C(F)(F)F)cc2)c1F` [Compound 1, N-(2-amino-3-fluoro-4-(4-trifluoromethylbenzylamino)-phenyl)-cyclopentyl propionamide], for which the EC50 came to 150 ± 40 nM at KCNQ2/3 channels (setting [1]) and 380 ± 100 nM on KCNQ2/3 (Kv7.2/7.3). In addition, the “opening activity to KCNQ4 (Kv7.4)” value at KCNQ4 (Kv7.4) is “relatively small”. In addition, the “effective rate (no ankylosis of hind limbs)” value with Kunming mice (setting [2]) was found to be 100%. In addition, the “protective rate (non-death mice within 12 h)” value in the data set on KM mice (3 mg/kg body weight i.p.) and with KM mice (5 mg/kg body weight i.p.) was 100% each time. In addition, the seizure threshold with KM mice (3 mg/kg body weight i.p.) was 867.21 ± 152.51 s; with KM mice (5 mg/kg body weight i.p.) it was 1185.96 ± 134.28 s.
For the compound `CC(C)(C)CC(=O)Nc1ccc(NCc2ccc(C(F)(F)F)cc2)c(F)c1N` [Compound 2, N-(2-amino-3-fluoro-4-(4-trifluoromethylbenzylamino)-phenyl)-3,3-dimethyl Butyramide], the EC50 at KCNQ2/3 channels (setting [1]) amounted to 210 ± 80 nM. Further, in the data set with Kunming mice (setting [2]), the “effective rate (no ankylosis of hind limbs)” value stood at 90%.
Regarding `Nc1c(NC(=O)C2CCCC2)ccc(NCc2ccc(C(F)(F)F)cc2)c1F` [Compound 3, N-(2-amino-3-fluoro-4-(4-trifluoromethylbenzylamino)-phenyl)-cyclopentyl Formamide], the melting point lay within 222.9 to 223.5 °C. Further, the EC50 at KCNQ2/3 channels (setting [1]) came out at 2830 ± 210 nM.
Compound `Nc1c(NC(=O)CC2CCCC2)ccc(NCc2ccc(C(F)(F)F)cc2)c1F` [Compound 4, N-(2-amino-3-fluoro-4-(4-trifluoromethylbenzylamino)-phenyl)-cyclopentyl Acetamide] gave a melting point of 196.9 to 197.5 °C. In addition, the EC50 at KCNQ2/3 channels (setting [1]) is 580 ± 130 nM.
`Nc1c(NC(=O)CCN2CCCCC2)ccc(NCc2ccc(C(F)(F)F)cc2)c1F` [Compound 5, N-(2-amino-3-fluoro-4-(4-trifluoromethylbenzylamino)-phenyl)-3-piperidinyl-1-propionamide] yielded a melting point of 202.1 to 203.5 °C. For the same compound, the EC50 on KCNQ2/3 channels (setting [1]) was 750 ± 120 nM.
Turning to `Nc1c(NC(=O)CCc2ccco2)ccc(NCc2ccc(C(F)(F)F)cc2)c1F` [Compound 6, N-(2-amino-3-fluoro-4-(4-trifluoromethylbenzylamino)-phenyl)-3-furanyl-2-propanamide], the melting point fell in the range of 212.2 to 213.5 °C. Further, the EC50 on KCNQ2/3 channels (setting [1]) came out at 3580 ± 730 nM.
For `Nc1c(NC(=O)CCCc2ccccc2)ccc(NCc2ccc(C(F)(F)F)cc2)c1F` [Compound 7], the melting point lay in the range of 198.5 to 199.5 °C. Besides, the EC50 on KCNQ2/3 channels (setting [1]) was determined as 5260 ± 820 nM.
The compound `CCOC(=O)Nc1ccc(NCc2ccc(F)cc2)cc1N` [RTG, Retigabine, reference compound] had an EC50 on KCNQ2/3 channels of 860 ± 180 nM. For the same compound, in the data set with Kunming mice (intraperitoneal 10 mg/kg body weight), the “effective rate (no ankylosis of hind limbs)” value amounted to 80%. Also, in the data set with KM mice (15 mg/kg body weight i.p.), the “protective rate (non-death mice within 12 h)” value is 50% and the seizure threshold was determined as 858.17 ± 528.48 s.

The melting point is the temperature of the solid-liquid transition.
